Laboratory results published in patent US20260265267A1, “NOVEL COMPOUNDS WITH MTORC2-INHIBITORY ACTIVITY AND USES THEREOF” (Aliad Biopharma, priority 2023, published 2026).

Assays:
[1] = system: mTORC1; assay: mTORC1 inhibitory activity in primary cultured cerebral neurons (S6K Thr389 phosphorylation); assay type: cell-based, SD mice; details: for pThr389-S6K/S6K (% control): 24 hours
[2] = biological target: T1, mTOR(CD) protein and mLST8 protein (Homo sapiens, UniProt P42345+Q9BVC4); assay: mTOR(CD)-mLST8 binding assay (co-precipitation, Western blot); details: read-out: inhibition of the binding between mTOR(CD) and mLST8 proteins
T1 construct: mTOR C-terminal domain (mTOR(CD), a.a. 2179-2549); made in house; host or cells: E. coli (mTOR(CD)); insect Sf9 cells (mLST8, used as a crude extract)
Protocol: mLST8 binds to the mTOR C-terminal domain (mTOR(CD), a.a. 2179-2549). After binding to mTOR, mLST8 interacts with mSin1 and Rictor to complete the formation of the mTORC2 complex, serving as a scaffold. In order to evaluate the inhibitory activity of the compounds synthesized in Examples 1 to 70 on the binding between mLST8 protein and mTOR(CD) protein, the following mTOR(CD)-mLST8 binding assay was performed. Four types of compounds: HN2210, HN2213, HN2221 and HN2313 were used as the experimental target compounds.
Specifically, mTOR(CD) protein was overexpressed in E. coli, labeled with biotin, and then partially purified. mLST8 protein was overexpressed in insect Sf9 cells to obtain mLST8 extract. mTOR(CD)-biotin and mLST8 extract were incubated at 4° C. to induce binding between mTOR(CD)-biotin and mLST8 proteins, and then the mTOR(CD)-biotin and mLST8 complex were co-precipitated using avidin-agarose beads. The relative amounts of precipitated mTOR(CD)-biotin and mLST8 proteins were measured by Western blot analysis, as shown in FIG. 4. Four types of compounds were added during the incubation process of the mTOR(CD)-biotin and mLST8 extract.

[3] = system: 5×FAD Alzheimer's disease model mice; assay: Passive avoidance test in 5×FAD mice (long-term memory); assay type: in vivo
Protocol: (§1) In order to evaluate the efficacy of HN2210, HN2213, and HN2313 on Alzheimer's disease-related symptoms, specifically regarding 1) memory and cognitive impairment, 2) amyloid plaques, 3) neurofibrillary tangles (NFTs), and 4) brain inflammation, an in vivo efficacy assessment of HN2210, HN2213 and HN2313 was conducted using 5×FAD Alzheimer's disease model mice. The 5×FAD mice were purchased from Jackson Lab, USA (Cat #034840-JAX) and crossed once with C57bl6 mice to produce F1 heterozygous offspring (Het). The compound was administered via intraperitoneal injection to 6-month-old 5×FAD Het mice, followed by behavioral testing. The normal control mice, which were littermates of the 5×FAD Het mice, were aged to 6 months and received DMSO injection at the same volume.
Specifically, to mice trained to avoid bright light three times daily, an electric foot shock (1 mA, 300 g) was applied for 3 seconds in a dark room at the same time on the next day. After 24 hours, the mice were placed again in the same room, and the avoidance response by light, that is, the time taken to move from the bright room to the dark room was measured. At 24 hours after habituation training, the mice were placed back into the bright room, and the latency time for entering the dark room was recorded over a period of 720 seconds.

[4] = system: activated microglia in the brain of 5×FAD mice; assay: Anti-inflammatory effect in the brain of 5×FAD mice (IBA-1 antibody staining); assay type: in vivo; details: 5 mg/kg, 14 days
Protocol: as §1
In order to assess the anti-inflammatory effect of HN2210, HN2213, and HN2313 compounds in the brains of Alzheimer's disease model mice, the following test was conducted using 5×FAD-DMSO mice without compound treatment, 5×FAD mice treated with HN2210, HN2213, or HN2313 compounds, and normal mice as controls. Specifically, brain inflammation is mediated by the activation of microglia, which can be stained using the IBA-1 antibody. Therefore, inflammation in the hippocampus of 5×FAD mouse can be assessed using immunostaining with the IBA-1 antibody. Brain slices were double-stained with the IBA-1 antibody and DAPI to label nuclei, and the dentate gyrus region of the hippocampus was observed under a confocal scanning microscope.

[5] = 5 mg/kg, 14 days / 2 weeks (FIG. 7)

T1 sequence (P42345 2179-2549 limits assumed, species assumed): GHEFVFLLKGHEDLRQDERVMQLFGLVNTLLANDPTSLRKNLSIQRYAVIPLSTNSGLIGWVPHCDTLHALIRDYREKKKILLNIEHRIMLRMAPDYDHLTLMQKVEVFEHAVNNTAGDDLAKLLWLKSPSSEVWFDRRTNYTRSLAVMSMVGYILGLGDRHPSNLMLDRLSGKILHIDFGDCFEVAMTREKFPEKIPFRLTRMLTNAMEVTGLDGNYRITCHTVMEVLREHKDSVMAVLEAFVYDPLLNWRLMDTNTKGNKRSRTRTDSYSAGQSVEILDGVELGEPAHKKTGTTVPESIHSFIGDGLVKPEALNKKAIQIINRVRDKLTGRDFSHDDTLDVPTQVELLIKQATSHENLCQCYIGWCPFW
T1 sequence (Q9BVC4 whole entry, species assumed, the tested form may be a part): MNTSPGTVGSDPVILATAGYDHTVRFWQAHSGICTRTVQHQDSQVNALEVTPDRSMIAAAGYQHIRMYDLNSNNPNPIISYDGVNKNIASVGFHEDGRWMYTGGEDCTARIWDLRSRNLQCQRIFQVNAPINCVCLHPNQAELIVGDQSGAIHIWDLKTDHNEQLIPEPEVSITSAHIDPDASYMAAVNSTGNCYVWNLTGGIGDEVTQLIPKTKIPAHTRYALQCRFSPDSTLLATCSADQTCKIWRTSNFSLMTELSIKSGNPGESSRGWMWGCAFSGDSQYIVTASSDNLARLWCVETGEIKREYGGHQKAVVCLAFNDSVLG

Row | inhibition at 4 µM [2] | inhibition at 40 µM [2] | Structure (SMILES) | effect on S6K Thr389 phosphorylation ([1]; 500 nM or 100 nM, time course to 24 hours (HN2304: from 6 to 24 hours)) | pThr389-S6K/S6K (% control) ([1]; 500 nM) | increase in S6K Thr389 phosphorylation at 3 hours ([1]; at 3 hours) | decrease in S6K Thr389 phosphorylation at 24 hours ([1]; at 24 hours) | passive avoidance latency time, % of the normal control level ([3]; 0.2 mg/kg, 14 days (FIG. 8d)) | passive avoidance latency time, increase compared to 5×FAD-DMSO mice ([3]; 0.2 mg/kg, 14 days (FIG. 8d)) | passive avoidance latency time, % of the normal control level ([3]; 1 mg/kg, 14 days (FIG. 8d)) | passive avoidance latency time, increase compared to 5×FAD-DMSO mice ([3]; 1 mg/kg, 14 days (FIG. 8d)) | passive avoidance latency time, increase compared to 5×FAD-DMSO mice ([3]; 5 mg/kg, 14 days (FIG. 7)) | passive avoidance latency time, % of the normal control level ([3]; 5 mg/kg, 14 days (FIG. 8d)) | passive avoidance latency time, increase compared to 5×FAD-DMSO mice ([3]; 5 mg/kg, 14 days (FIG. 8d)) | passive avoidance latency time, % of the normal control level [3, 5] | reduction of IBA-1 antibody signals in the dentate gyrus compared to the 5×FAD-DMSO group [4] | pThr389-S6K/S6K (% control) ([1]; 100 nM) | increase in S6K Thr389 phosphorylation from 1 to 6 hours ([1]; from 1 to 6 hours) | increase in S6K Thr389 phosphorylation in a time-dependent manner ([1]; time course to 24 hours)
1 | 24% | 36% | O=C1c2cc(F)c(N3CCOCC3)cc2COc2cc3c(cc21)OCO3 [HN2210, 8-(morpholino)-9-fluoro[2]benzoxepino[3,4-f]-1,3-benzodioxol-11(6H)-one] | reduced p70S6K Thr389 phosphorylation | 23 % control | 49% | 77% | approximately 56% | 2.97 fold | ~83% | 4.39 fold | 5.16 fold | ~97% | 5.16 fold | approximately 84% | 50% |  |  | 
2 |  | 34% | O=C1c2cc(F)c(NC3CCCC3)cc2COc2cc3c(cc21)OCO3 [HN2313, 8-(cyclopentylamino)-9-fluoro-[1,3]dioxolo[4′,5′:4,5]benzo[1,2-b]benzo[e]oxepin-11(6H)-one] |  |  |  |  |  |  |  |  | 5.86 fold |  |  | ~96% | 50% | 141 % control | 2~3 fold | 
3 | 19% | 30% | O=C1c2cc(F)c(NCc3ccccc3)cc2COc2cc3c(cc21)OCO3 [HN2213, 8-(benzylamino)-9-fluoro[2]benzoxepino[3,4-f]-1,3-benzodioxol-11(6H)-one] |  | 137 % control |  |  |  |  |  |  | 4.52 fold |  |  | ~74% | 24% |  |  | 37%
